In patent US9346815B2, “5-chloro-2-difluoromethoxyphenyl pyrazolopyrimidine compounds, compositions and methods of use thereof” (Genentech, Inc., priority 2014, dated 2016):

Legend:
[1] = target: isolated recombinant JAK1 kinase domain (Homo sapiens (Human), UniProt P23458); experiment: JAK1 enzyme assay (Caliper LabChip, peptide phosphorylation); assay type: biochemical; settings: isolated recombinant JAK1 kinase domain, 25 μM ATP
[2] = target: isolated recombinant JAK2 kinase domain (Homo sapiens (Human), UniProt O60674); experiment: JAK2 enzyme assay (Caliper LabChip, peptide phosphorylation); assay type: biochemical; settings: 25 μM ATP
isolated recombinant JAK2 kinase domain, sequence (O60674 849-1124): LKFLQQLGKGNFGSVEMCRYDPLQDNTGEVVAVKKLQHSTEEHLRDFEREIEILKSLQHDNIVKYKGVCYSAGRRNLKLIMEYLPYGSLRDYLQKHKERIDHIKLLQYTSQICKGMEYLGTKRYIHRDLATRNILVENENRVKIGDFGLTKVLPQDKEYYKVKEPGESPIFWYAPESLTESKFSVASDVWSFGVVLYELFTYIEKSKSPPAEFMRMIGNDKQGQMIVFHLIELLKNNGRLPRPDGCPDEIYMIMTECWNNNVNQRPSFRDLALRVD

[3] = tested on: JAK1-dependent STAT6 phosphorylation downstream of IL-13 stimulation in BEAS-2B human bronchial epithelial cells; experiment: JAK1 pathway assay in BEAS-2B cells (IL-13-pSTAT6, MSD); assay type: cell-based; settings: read-out: IL13-pSTAT6 EC50 (uM)_BEAS-2B
How it was run: (§1)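 BEAS-2B: 1 h, complete growth medium, 100,000 cells/well. TF-1: 30 min, serum-free OptiMEM after overnight GM-CSF starvation, 300,000 cells/well. EC50 reported.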

[4] = Clearance assay: mouse intravenous (IV) clearance; assay type: in vivo; settings: female BALB/c mice; for IV Mouse CL, % of liver blood flow: single IV dose of 1 mg/kg, clearance as % of mouse liver blood flow; for clearance: mouse, plasma, single IV dose of 1 mg/kg via the tail vein, read-out: IV Mouse CL
Source text: In certain instances high systemic clearance of a drug substance may be of benefit. For example, in the treatment of pulmonary diseases it may be beneficial to have high drug concentrations in the lung, with lower concentrations in the bloodstream or peripheral organs. In such cases, it may be advantageous to administer a drug substance with high systemic clearance via the inhaled delivery route. This approach may maximize pharmacologic activity of the drug substance in the lung while minimizing the possibility of on-target toxicity elsewhere in the body. The functional groups appended to the 5-chloro-2-difluoromethoxyphenyl pyrazolopyrimidine scaffold affect systemic clearance.
Female BALB/c mice were obtained from Charles River Labs (Hollister, Calif. USA). Twelve animals were given a single IV dose of 1 mg/kg of compounds via the tail vein. A representative dose solution was prepared as follows: the compound was dissolved in a mixture of 5% dimethylsulfoxide (DMSO), 35% polyethylene glycol (PEG 400), and 60% water (v/v/v), respectively, and administered at a dosing volume of 5 mL/kg. Mice weighed approximately 20-25 g at the start of the study. After intravenous administration of compounds, each animal was bled twice via retro-orbital and cardiac puncture. PK time points were collected at 2 min, 5 min, 15 min, 30 min, 1 hr, 2 hr, 4 hr, and 8 hr post-dose. Plasma samples were stored at approximately −80° C. until thawed for LC-MS/MS analysis. PK data analysis was performed on mean plasma concentration-time data and PK parameters were determined by non compartmental methods using WinNonlin® Enterprise, version 5.2.1 (Pharsight Corporation; Mountain View, Calif.).

[5] = tested on: JAK1-dependent STAT6 phosphorylation downstream of IL-13 stimulation in TF-1 human erythroleukemia cells; experiment: JAK1 pathway assay in TF-1 cells (IL-13-pSTAT6, MSD); assay type: cell-based; settings: Homo sapiens, TF-1, TF-1 cells, read-out: IL13-pSTAT6 EC50_TF-1
How it was run: as §1

isolated recombinant JAK1 kinase domain, sequence (P23458 875-1153): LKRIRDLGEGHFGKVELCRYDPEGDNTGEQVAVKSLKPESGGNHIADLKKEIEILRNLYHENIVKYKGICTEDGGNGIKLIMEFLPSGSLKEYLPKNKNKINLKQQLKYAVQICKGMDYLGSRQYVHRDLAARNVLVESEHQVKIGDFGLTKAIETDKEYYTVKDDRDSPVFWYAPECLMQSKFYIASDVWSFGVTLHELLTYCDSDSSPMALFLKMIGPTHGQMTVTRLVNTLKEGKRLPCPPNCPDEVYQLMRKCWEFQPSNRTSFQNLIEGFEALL

O=C(Nc1cn(CCNCc2ccccc2)nc1-c1cc(Cl)ccc1OC(F)F)c1cnn2cccnc12 [Example 313, N-[1-[2-(benzylamino)ethyl]-3-[5-chloro-2-(difluoromethoxy)phenyl]-1H-pyrazol-4-yl]pyrazolo[1,5-a]pyrimidine-3-carboxamide]
Ki [1]: 0.21 nM | Ki [2]: 0.21 nM | EC50 [3]: 0.0218 µM | IV Mouse CL, % of liver blood flow [4]: 57% | clearance [4]: 51 mL/min/kg

COCCNCCn1cc(NC(=O)c2cnn3cccnc23)c(-c2cc(Cl)ccc2OC(F)F)n1 [Example 294, N-[3-[5-chloro-2-(difluoromethoxy)phenyl]-1-[2-(2-methoxyethylamino)ethyl]pyrazol-4-yl]pyrazolo[1,5-a]pyrimidine-3-carboxamide]
Ki [1]: 0.89 nM | Ki [2]: 0.57 nM | EC50 [5]: 6.2 nM | EC50 [3]: 0.0367 µM | IV Mouse CL, % of liver blood flow [4]: >100% | clearance [4]: 95 mL/min/kg

O=C(Nc1cn(CC(=O)N2CCC(CN3CCOCC3)CC2)nc1-c1cc(Cl)ccc1OC(F)F)c1cnn2cccnc12 [Example 348, N-[3-[5-chloro-2-(difluoromethoxy)phenyl]-1-[2-[4-(morpholin-4-ylmethyl)piperidin-1-yl]-2-oxoethyl]-1H-pyrazol-4-yl]pyrazolo[1,5-a]pyrimidine-3-carboxamide]
Ki [1]: 0.4 nM | Ki [2]: 1.02 nM | EC50 [3]: 0.012 µM | IV Mouse CL, % of liver blood flow [4]: >100% | clearance [4]: 143 mL/min/kg

O=C(Nc1cn(CC(=O)N2CCC(O)CC2)nc1-c1cc(Cl)ccc1OC(F)F)c1cnn2cccnc12 [Example 278, N-[3-[5-chloro-2-(difluoromethoxy)phenyl]-1-[2-(4-hydroxy-1-piperidyl)-2-oxo-ethyl]pyrazol-4-yl]pyrazolo[1,5-a]pyrimidine-3-carboxamide]
Ki [1]: 0.24 nM | Ki [2]: 0.63 nM | EC50 [3]: 0.005 µM | IV Mouse CL, % of liver blood flow [4]: >100% | clearance [4]: 133 mL/min/kg

CN(CC(C)(F)F)C1CCN(C(=O)Cn2cc(NC(=O)c3cnn4cccnc34)c(-c3cc(Cl)ccc3OC(F)F)n2)CC1 [Example 134, N-[3-[5-chloro-2-(difluoromethoxy)phenyl]-1-[2-[4-[2,2-difluoropropyl(methyl)amino]-1-piperidyl]-2-oxo-ethyl]pyrazol-4-yl]pyrazolo[1,5-a]pyrimidine-3-carboxamide]
Ki [1]: 0.33 nM | Ki [2]: 0.69 nM | EC50 [5]: 2.3 nM | EC50 [3]: 0.0118 µM | IV Mouse CL, % of liver blood flow [4]: >100% | clearance [4]: 222 mL/min/kg

CN1C[C@@H]2CN(C(=O)Cn3cc(NC(=O)c4cnn5cccnc45)c(-c4cc(Cl)ccc4OC(F)F)n3)C[C@@H]2C1 [Example 3, Cis-pyrazolo[1,5-a]pyrimidine-3-carboxylic acid {3-(5-chloro-2-difluoromethoxyphenyl)1-[2-(5-methylhexahydropyrrolo[3,4-c]pyrrol-2-yl)-2-oxoethyl]-1H-pyrazol-4-yl}amide]
Ki [1]: 0.79 nM | Ki [2]: 0.81 nM | EC50 [5]: 16.7 nM | EC50 [3]: 0.0324 µM | IV Mouse CL, % of liver blood flow [4]: >100% | clearance [4]: 216 mL/min/kg

CN(CC(F)(F)c1ccccc1)C1CCN(C(=O)Cn2cc(NC(=O)c3cnn4cccnc34)c(-c3cc(Cl)ccc3OC(F)F)n2)CC1 [Example 102, N-[3-[5-chloro-2-(difluoromethoxy)phenyl]-1-[2-[4-[(2,2-difluoro-2-phenyl-ethyl)-methyl-amino]-1-piperidyl]-2-oxo-ethyl]pyrazol-4-yl]pyrazolo[1,5-a]pyrimidine-3-carboxamide]
Ki [1]: 0.62 nM | Ki [2]: 1.1 nM | EC50 [5]: 8.5 nM | EC50 [3]: 0.0347 µM | IV Mouse CL, % of liver blood flow [4]: >100% | clearance [4]: 140 mL/min/kg

CC(C)(C#N)CNC1CCN(C(=O)Cn2cc(NC(=O)c3cnn4cccnc34)c(-c3cc(Cl)ccc3OC(F)F)n2)CC1 [Example 466, N-(3-(5-chloro-2-(difluoromethoxy)phenyl)-1-(2-(4-(2-cyano-2-methyl-propylamino)piperidin-1-yl)-2-oxoethyl)-1H-pyrazol-4-yl)pyrazolo[1,5-a]pyrimidine-3-carboxamide]
Ki [1]: 0.27 nM | Ki [2]: 0.74 nM | EC50 [3]: 0.014 µM | IV Mouse CL, % of liver blood flow [4]: 80% | clearance [4]: 72 mL/min/kg

O=C(Nc1cn(CC(=O)N2CC=CCC2)nc1-c1cc(Cl)ccc1OC(F)F)c1cnn2cccnc12 [Example 284, N-[3-[5-chloro-2-(difluoromethoxy)phenyl]-1-[2-(3,6-dihydro-2H-pyridin-1-yl)-2-oxo-ethyl]pyrazol-4-yl]pyrazolo[1,5-a]pyrimidine-3-carboxamide]
Ki [1]: 0.15 nM | Ki [2]: 0.37 nM | EC50 [5]: 1.6 nM | EC50 [3]: 0.0125 µM | IV Mouse CL, % of liver blood flow [4]: >100% | clearance [4]: 219 mL/min/kg

CN(C)CC#Cc1nc(-c2cc(Cl)ccc2OC(F)F)c(NC(=O)c2cnn3cccnc23)s1 [Example 209, Pyrazolo[1,5-a]pyrimidine-3-carboxylic acid [4-(5-chloro-2-difluoromethoxy-phenyl)-2-(3-dimethylamino-prop-1-ynyl)-thiazol-5-yl]-amide]
Ki [1]: 0.78 nM | Ki [2]: 0.28 nM | EC50 [5]: 7.4 nM | EC50 [3]: 0.0415 µM | IV Mouse CL, % of liver blood flow [4]: 71% | clearance [4]: 64 mL/min/kg

CN(C)CCOC(=O)C1CCN(C(=O)Cn2cc(NC(=O)c3cnn4cccnc34)c(-c3cc(Cl)ccc3OC(F)F)n2)CC1 [Example 338, 2-(dimethylamino)ethyl 1-(2-[3-[5-chloro-2-(difluoromethoxy)phenyl]-4-[pyrazolo[1,5-a]pyrimidine-3-amido]-1H-pyrazol-1-yl]acetyl)piperidine-4-carboxylate]
Ki [1]: 0.36 nM | Ki [2]: 1.16 nM | EC50 [3]: 0.0177 µM | IV Mouse CL, % of liver blood flow [4]: >100% | clearance [4]: > 200 mL/min/kg

CSCCN1CCN(C(=O)Cn2cc(NC(=O)c3cnn4cccnc34)c(-c3cc(Cl)ccc3OC(F)F)n2)CC1 [Example 372, N-[3-[5-chloro-2-(difluoromethoxy)phenyl]-1-(2-[4-[2-(methylsulfanyl)ethyl]piperazin-1-yl]-2-oxoethyl)-1H-pyrazol-4-yl]pyrazolo[1,5-a]pyrimidine-3-carboxamide]
Ki [1]: 0.25 nM | Ki [2]: 0.51 nM | EC50 [3]: 0.0197 µM | IV Mouse CL, % of liver blood flow [4]: >100% | clearance [4]: 93 mL/min/kg

CN(C)C1CCN(C(=O)Cn2cc(NC(=O)c3cnn4cccnc34)c(-c3cc(Cl)ccc3OC(F)F)n2)CC1 [Example 67, N-[3-[5-chloro-2-(difluoromethoxy)phenyl]-1-[2-[4-(dimethylamino)-1-piperidyl]-2-oxo-ethyl]pyrazol-4-yl]pyrazolo[1,5-a]pyrimidine-3-carboxamide]
Ki [1]: 0.89 nM | EC50 [5]: 14.6 nM | EC50 [3]: 0.0715 µM | IV Mouse CL, % of liver blood flow [4]: >100% | clearance [4]: 205 mL/min/kg

N#CC1(CNC2CCN(C(=O)Cn3cc(NC(=O)c4cnn5cccnc45)c(-c4cc(Cl)ccc4OC(F)F)n3)CC2)CC1 [Example 468, N-(3-(5-chloro-2-(difluoromethoxy)phenyl)-1-(2-(4-(((1-cyanocyclopropyl)methyl)amino)piperidin-1-yl)-2-oxoethyl)-1H-pyrazol-4-yl)pyrazolo[1,5-a]pyrimidine-3-carboxamide]
Ki [1]: 0.36 nM | Ki [2]: 0.92 nM | EC50 [3]: 0.006 µM | IV Mouse CL, % of liver blood flow [4]: >100% | clearance [4]: 140 mL/min/kg
